In one data set the test system is DOHH2 cells. The data set can be described thus: DOHH2 Proliferation Assay. In kind it is cell-based. The following applies: Homo sapiens, DOHH-2, 168 h; CellTiter-Glo viability on day 7. On the procedure:
DOHH2 Proliferation Assay: On day 1, 1000 DOHH2 cells were seeded to a 384-well TC plate (PerkinElmer #6007680) in 40 μL RPMI 1640 media, followed by the addition of CBP inhibitors except for column 13 where 3.3 μM staurosporine was added as negative control. DMSO was 0.1% in all the wells. The cells were lysed in and counted viability by 40 μL CellTiter-Glo (Promega #G9243) on day 7. The luminescent signal was quantified by Envision Multilabel plate reader and the standard dose response curves were fitted by Genedata Screener software using the variable-slope model: Signal=Signalnegative control+(SignalDMSO control−Signalnegative control)/(1+(IC50/Dose)∧Hill slope).
Only Signal and Dose in the equation were treated as known values.
For orientation: Cellular ATP, detected with luciferase, serves as a proxy for viable cell number.

A short description of data set [1]: Metabolic stability in rat liver microsomes. The settings on record: Sprague Dawley, pH 7.4, 0.5 mg/mL microsomes, NADPH, 45 minutes, 37° C., read-out: Half-life in liver microsomes (t1/2). It counts as in vitro ADME. The procedure: (§1) Microsomal stability. Microsomal stability assays were conducted on a Beckmann Biomek FXp laboratory automation system. The liver microsomal incubation mixture consisted of liver microsomes (0.5 mg microsomal protein/mL), the Compound (1 μM), MgCl2 (3 mM), and EDTA (1 mM) in potassium phosphate buffer (100 mM, pH 7.4). Midazolam and Ketanserin were used as the assay control substrates. The reaction was initiated with the addition of an NADPH regeneration solution (1.3 mM NADPH) and maintained at 37° C. with shaking. At five time points ranging from 0 to 45 min, aliquots (50 μL) were removed and quenched with acetonitrile (100 μL) containing an internal standard (imipramine). After vortex and centrifugation, samples were analyzed by LC-MS/MS. Calculation of the in vitro half-lives and clearance followed literature guidelines.
For orientation: Liver microsomes are a subcellular fraction often used to study metabolism.

A short description of data set [2]: Metabolic stability in dog liver microsomes. In kind it is in vitro ADME. The settings on record: pH 7.4, read-out: Liver microsomal clearance (t1/2). On the procedure: as §1
Data set [3] in a line: In vivo pharmacokinetics after a single dose, rat. The settings on record: male, plasma, Sprague-Dawley rat. On the procedure:
(§2) IV (intravenous) doses were formulated in 20% DMSO+60% PEG400+20% water. PO (per os) doses were formulated in 0.5% methylcellulose in water.
Rat: Male rats (SD strain, purchased from Shanghai JH Laboratory Animal Co. LTD) weighing 200-300 g were used for studies. Animals were fasted overnight and fed 4 h postdose. Water was available ad libitum for all animals. Test article was dosed via dorsal foot vein (IV doses) or oral gavage (PO doses). Blood samples were collected via tail vein from all animals at predose and at 0.083, 0.25, 0.5, 1, 2, 4, 8, and 24 h postdose into tubes containing the anticoagulant K2EDTA. Plasma was separated from the blood by centrifugation at 4° C. and stored at −70° C. until analysis. Test article concentrations in plasma were quantified using a liquid chromatography with tandem mass spectrometry (LC-MS/MS) method.

A short description of data set [4]: In vivo pharmacokinetics after a single dose, monkey. The following applies: male, plasma, Cynomolgus monkey. On the procedure:
as §2
(§3) Monkey: Male Cynomolgus monkeys (purchased from Hainan Jingang Biotech. Co., Ltd) weighing 3-5 kg were used for studies. Animals were fasted overnight and fed 4 h postdose. Test article was administered to monkeys via the cephalic vein (IV doses) or nasal gavage (PO doses). Blood samples were collected via the saphenous vein or cephalic vein from all animals at predose and 0.083, 0.25, 0.5, 1, 2, 4, 8, and 24 h postdose into tubes containing the anticoagulant K2EDTA. Plasma was separated from the blood by centrifugation at 4° C. and stored at −70° C. until analysis. Test article concentrations in plasma were quantified using a liquid chromatography with tandem mass spectrometry (LC-MS/MS) method.

Data set [5] can be described thus: In vivo pharmacokinetics after a single dose, dog. The following applies: male, plasma, Beagle dog. On the procedure:
as §2
as §3, with “Dog:” for “Monkey:”, “Beagle dogs” for “Cynomolgus monkeys”, “Beijing Marshall Biotechnology” for “Hainan Jingang Biotech.”, “7-10” for “3-5”, “dogs” for “monkeys”, “oral” for “nasal”

[6] abbreviates: 1 mg/kg IV single dose, read-out: Vss.

The IC50 is the concentration needed to halve the response being measured. The term clearance denotes a measure of how efficiently the substance is removed, as volume per time. One may read the AUC(0-t) as exposure summed from dosing to a finite time, without extrapolation to infinity. A word on the Cmax: it is the peak of the concentration-time curve. Regarding `CC(=O)N1CCn2c(C3CCOCC3)nc(-c3cccc4cc(-c5cnc(C)s5)ncc34)c2C1` [Compound 1, 1-(1-(3-(2-methylthiazol-5-yl)isoquinolin-8-yl)-3-(tetrahydro-2H-pyran-4-yl)-5,6-dihydroimidazo[1,5-α]pyrazin-7 (8H)-yl)ethan-1-one], in the data set on DOHH2 cells, the IC50 was 261 nM. Also, the half-life at 1 μM is 20.4 h in data set [1] and 11.9 h in data set [2]. The clearance in data set [3] (1 mg/kg IV single dose) was 11.2 mL/min/kg; in data set [4] (1 mg/kg IV single dose) it was 6.97 mL/min/kg; in data set [5] (1 mg/kg IV single dose), 4.3 mL/min/kg. Besides, the half-life is 3.82 h in data set [3] (1 mg/kg IV single dose), 4.74 h in data set [4] (1 mg/kg IV single dose) and 9.74 h in data set [5] (1 mg/kg IV single dose). Moreover, the Vd in data set [3] (setting [6]) was found to be 2.31 L/kg; in data set [4] (setting [6]), 2.28 L/kg; in data set [5] (setting [6]), 3.38 L/kg. The AUC(0-t) in data set [3] (30 mg/kg PO single dose) came to 124 µM·h; in data set [4] (3 mg/kg PO single dose), 11.3 µM·h; in data set [5] (3 mg/kg PO single dose), 26.2 µM·h. Besides, the Cmax in data set [3] (30 mg/kg PO single dose) was 23000 nM; in data set [4] (3 mg/kg PO single dose), 1970 nM; in data set [5] (3 mg/kg PO single dose) it was 2560 nM. Further, the bioavailability in data set [3] (30 mg/kg PO single dose) is 129%; in data set [4] (3 mg/kg PO single dose) it was 70.5%; in data set [5] (3 mg/kg PO single dose), 119%.
